Consider 26 compounds from ChEMBL document CHEMBL3991601, “The target landscape of clinical kinase drugs” (Science, 2017).

Activity calls are given as the source filed them.

For assay [1], the target named is Epidermal growth factor receptor (Homo sapiens, UniProt P00533).
In assay [2] the target is T1, Eukaryotic translation initiation factor 5B (Homo sapiens, UniProt O60841).
T1 sequence (O60841 whole entry): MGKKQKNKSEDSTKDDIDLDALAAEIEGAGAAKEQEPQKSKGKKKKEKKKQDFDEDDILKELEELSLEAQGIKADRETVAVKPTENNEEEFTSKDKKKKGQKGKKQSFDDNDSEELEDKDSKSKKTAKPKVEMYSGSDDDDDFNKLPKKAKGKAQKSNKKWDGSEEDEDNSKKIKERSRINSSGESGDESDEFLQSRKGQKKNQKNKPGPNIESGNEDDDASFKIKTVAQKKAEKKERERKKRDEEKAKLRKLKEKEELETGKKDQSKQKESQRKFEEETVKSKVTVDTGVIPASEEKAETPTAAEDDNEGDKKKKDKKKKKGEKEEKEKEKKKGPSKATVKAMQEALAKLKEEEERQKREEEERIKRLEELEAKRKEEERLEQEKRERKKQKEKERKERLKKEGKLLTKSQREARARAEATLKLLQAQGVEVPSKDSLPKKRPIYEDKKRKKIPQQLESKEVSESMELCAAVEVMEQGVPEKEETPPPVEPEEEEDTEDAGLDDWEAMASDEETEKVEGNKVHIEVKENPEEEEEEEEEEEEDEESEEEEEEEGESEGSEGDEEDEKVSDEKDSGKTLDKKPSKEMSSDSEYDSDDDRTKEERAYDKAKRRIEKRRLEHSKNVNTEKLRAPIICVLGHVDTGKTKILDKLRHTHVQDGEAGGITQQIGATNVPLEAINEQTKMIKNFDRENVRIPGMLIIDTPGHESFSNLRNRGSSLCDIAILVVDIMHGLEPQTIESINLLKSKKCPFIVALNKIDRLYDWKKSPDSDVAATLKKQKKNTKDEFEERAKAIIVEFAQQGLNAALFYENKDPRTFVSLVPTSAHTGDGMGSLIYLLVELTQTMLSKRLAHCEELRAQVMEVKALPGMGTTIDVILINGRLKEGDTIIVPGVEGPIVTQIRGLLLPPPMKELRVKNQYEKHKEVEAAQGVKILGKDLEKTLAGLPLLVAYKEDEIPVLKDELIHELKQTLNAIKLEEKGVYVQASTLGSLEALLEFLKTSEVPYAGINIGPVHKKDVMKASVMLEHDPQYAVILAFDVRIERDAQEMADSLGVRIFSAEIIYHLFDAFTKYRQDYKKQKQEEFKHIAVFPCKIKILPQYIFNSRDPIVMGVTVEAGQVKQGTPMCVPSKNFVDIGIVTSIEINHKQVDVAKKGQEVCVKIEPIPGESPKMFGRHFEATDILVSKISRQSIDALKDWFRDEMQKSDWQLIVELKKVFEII

A further assay deals with Ephrin type-A receptor 7 (Homo sapiens, UniProt Q15375).
In another assay the target is Misshapen-like kinase 1 (Homo sapiens, UniProt Q8N4C8).
The target of assay [3] is Membrane-associated progesterone receptor component 1 (Homo sapiens, UniProt O00264).
Assay [4] concerns the target T2, Phosphatidylinositol 5-phosphate 4-kinase type-2 alpha (Homo sapiens, UniProt P48426).
T2 sequence (P48426 whole entry): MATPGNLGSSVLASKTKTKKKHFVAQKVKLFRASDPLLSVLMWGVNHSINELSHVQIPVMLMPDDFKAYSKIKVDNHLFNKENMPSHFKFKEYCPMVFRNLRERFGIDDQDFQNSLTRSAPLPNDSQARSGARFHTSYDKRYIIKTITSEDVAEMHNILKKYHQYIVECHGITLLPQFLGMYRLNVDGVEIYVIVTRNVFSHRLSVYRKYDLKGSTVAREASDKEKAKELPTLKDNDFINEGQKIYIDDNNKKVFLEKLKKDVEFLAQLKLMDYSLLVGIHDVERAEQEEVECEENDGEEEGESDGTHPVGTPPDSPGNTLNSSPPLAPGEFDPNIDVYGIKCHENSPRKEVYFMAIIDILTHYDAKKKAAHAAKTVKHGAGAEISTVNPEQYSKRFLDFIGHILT

The target in assay [5] is Serine/threonine-protein kinase 38-like (Homo sapiens, UniProt Q9Y2H1).
Further: in the data inactive means no Kd found up to 30 µM.

Sequence of Ephrin type-A receptor 7 (Q15375 whole entry): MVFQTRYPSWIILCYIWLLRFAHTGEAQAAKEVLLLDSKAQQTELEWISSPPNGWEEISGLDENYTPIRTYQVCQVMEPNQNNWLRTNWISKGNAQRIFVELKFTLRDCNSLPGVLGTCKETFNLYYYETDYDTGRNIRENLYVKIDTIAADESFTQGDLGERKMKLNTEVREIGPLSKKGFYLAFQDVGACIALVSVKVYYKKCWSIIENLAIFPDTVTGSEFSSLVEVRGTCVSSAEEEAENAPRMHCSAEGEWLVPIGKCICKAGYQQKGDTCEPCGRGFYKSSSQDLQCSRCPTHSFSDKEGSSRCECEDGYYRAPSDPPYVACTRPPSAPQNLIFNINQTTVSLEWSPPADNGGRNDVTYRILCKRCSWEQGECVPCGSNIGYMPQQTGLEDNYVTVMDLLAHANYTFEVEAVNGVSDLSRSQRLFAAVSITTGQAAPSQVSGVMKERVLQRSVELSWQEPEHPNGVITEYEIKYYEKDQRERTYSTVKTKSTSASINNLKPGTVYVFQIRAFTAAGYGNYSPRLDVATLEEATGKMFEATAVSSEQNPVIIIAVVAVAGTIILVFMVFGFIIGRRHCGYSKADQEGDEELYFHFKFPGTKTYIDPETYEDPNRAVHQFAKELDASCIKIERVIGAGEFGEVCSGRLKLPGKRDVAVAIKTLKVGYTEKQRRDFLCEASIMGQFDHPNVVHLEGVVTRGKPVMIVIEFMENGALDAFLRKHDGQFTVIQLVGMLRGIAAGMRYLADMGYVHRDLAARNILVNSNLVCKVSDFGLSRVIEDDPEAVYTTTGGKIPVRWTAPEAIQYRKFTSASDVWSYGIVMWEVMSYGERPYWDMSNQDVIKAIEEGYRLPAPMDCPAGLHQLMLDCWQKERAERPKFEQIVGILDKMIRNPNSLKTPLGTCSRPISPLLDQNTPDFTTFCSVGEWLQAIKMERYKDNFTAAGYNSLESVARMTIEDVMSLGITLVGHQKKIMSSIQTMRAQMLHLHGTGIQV
Sequence of Misshapen-like kinase 1 (Q8N4C8 whole entry): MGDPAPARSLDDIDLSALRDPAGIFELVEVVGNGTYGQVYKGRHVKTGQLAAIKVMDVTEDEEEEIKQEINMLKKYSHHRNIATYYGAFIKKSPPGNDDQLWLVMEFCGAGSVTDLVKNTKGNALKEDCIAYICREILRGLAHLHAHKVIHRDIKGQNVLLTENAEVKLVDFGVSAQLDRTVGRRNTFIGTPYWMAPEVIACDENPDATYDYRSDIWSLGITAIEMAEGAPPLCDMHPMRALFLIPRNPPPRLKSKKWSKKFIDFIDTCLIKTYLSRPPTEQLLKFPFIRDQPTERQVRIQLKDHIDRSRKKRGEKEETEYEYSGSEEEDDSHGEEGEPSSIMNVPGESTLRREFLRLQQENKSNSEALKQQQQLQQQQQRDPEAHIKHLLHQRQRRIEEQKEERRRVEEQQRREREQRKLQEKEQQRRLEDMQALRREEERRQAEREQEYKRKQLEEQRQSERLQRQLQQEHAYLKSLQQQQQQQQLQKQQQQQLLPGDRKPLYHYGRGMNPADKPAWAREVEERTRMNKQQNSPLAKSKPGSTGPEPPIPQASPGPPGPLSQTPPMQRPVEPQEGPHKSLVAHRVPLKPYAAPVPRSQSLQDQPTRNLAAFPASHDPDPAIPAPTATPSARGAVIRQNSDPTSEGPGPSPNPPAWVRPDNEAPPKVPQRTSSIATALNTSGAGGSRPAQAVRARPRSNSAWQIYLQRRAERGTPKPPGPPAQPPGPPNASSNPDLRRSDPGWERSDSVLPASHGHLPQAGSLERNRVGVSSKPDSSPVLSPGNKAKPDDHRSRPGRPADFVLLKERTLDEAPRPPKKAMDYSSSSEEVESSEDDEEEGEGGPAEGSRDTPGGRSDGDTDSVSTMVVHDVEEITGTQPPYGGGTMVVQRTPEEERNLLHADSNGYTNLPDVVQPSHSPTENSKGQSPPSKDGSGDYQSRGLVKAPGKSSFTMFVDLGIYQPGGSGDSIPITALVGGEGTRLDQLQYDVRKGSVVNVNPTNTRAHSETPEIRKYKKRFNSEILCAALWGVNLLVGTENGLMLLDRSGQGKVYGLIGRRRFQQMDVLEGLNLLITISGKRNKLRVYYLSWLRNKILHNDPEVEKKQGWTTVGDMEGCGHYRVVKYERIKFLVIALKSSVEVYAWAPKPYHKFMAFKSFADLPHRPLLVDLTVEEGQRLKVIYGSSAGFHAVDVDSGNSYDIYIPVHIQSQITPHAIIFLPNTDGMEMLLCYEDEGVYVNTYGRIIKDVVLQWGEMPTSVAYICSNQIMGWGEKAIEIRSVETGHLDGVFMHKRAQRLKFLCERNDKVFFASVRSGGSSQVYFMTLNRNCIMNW
Sequence of Epidermal growth factor receptor (P00533 whole entry): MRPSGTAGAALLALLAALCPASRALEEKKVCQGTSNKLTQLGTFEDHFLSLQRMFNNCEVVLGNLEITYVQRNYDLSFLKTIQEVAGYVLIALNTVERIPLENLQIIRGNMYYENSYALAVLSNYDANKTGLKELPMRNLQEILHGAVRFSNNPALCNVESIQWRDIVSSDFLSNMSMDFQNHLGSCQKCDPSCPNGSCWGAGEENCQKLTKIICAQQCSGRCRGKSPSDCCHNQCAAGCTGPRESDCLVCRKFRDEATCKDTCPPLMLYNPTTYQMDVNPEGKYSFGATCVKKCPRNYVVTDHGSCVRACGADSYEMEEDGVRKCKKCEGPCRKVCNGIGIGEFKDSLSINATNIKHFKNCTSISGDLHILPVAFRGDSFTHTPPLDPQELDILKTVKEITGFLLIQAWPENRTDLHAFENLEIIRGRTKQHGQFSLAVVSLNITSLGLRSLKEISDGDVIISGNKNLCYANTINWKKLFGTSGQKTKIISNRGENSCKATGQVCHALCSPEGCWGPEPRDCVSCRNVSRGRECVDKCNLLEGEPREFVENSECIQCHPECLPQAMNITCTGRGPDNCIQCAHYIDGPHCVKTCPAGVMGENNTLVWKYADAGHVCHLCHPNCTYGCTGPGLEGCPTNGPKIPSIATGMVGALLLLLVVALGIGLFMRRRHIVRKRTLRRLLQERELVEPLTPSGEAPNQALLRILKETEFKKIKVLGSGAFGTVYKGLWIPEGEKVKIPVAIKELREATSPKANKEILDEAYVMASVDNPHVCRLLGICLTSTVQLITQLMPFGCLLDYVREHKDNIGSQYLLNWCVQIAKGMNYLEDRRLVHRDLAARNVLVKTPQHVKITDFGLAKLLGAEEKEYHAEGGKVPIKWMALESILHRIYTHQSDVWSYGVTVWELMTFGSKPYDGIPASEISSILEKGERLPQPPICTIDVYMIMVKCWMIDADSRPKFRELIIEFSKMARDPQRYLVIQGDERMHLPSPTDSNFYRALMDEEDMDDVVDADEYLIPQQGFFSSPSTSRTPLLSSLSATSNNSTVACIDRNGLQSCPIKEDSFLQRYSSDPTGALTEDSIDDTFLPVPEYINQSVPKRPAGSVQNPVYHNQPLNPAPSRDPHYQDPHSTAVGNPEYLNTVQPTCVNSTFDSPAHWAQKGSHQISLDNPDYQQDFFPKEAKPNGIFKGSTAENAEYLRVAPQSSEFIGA
Sequence of Serine/threonine-protein kinase 38-like (Q9Y2H1 whole entry): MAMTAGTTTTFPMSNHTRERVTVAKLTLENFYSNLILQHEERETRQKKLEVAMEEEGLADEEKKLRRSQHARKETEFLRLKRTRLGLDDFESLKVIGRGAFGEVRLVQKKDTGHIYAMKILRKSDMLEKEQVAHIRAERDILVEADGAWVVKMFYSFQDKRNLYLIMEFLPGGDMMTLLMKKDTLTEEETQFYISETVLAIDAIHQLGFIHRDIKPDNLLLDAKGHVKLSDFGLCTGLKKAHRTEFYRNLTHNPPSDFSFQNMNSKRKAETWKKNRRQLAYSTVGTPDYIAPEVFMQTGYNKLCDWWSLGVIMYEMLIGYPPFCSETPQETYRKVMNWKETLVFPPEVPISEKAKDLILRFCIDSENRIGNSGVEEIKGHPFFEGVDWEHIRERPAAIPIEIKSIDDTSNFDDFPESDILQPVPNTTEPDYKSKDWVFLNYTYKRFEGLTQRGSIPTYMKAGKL
Sequence of Membrane-associated progesterone receptor component 1 (O00264 whole entry): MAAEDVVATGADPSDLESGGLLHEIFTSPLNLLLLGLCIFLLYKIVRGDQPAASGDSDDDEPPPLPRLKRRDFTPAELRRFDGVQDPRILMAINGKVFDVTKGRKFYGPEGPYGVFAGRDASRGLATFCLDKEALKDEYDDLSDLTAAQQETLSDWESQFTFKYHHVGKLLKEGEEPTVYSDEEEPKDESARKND

As to `Cn1cc(-c2ccc(F)c(C(F)(F)F)c2)nc1C1CCN(c2ncnc3[nH]ncc23)CC1` [LY-2584702], the Kd (in assay [1]; in assay [2]; at Ephrin type-A receptor 7; at Misshapen-like kinase 1; in assay [3]; in assay [4]) was > 30 µM (inactive) each time.
For the compound `COc1cc(OC)c(/C=C/S(=O)(=O)Cc2ccc(OC)c(NCC(=O)O)c2)c(OC)c1` [RIGOSERTIB], the Kd (in assay [1]; in assay [2]; at Ephrin type-A receptor 7; in assay [4]) was > 30 µM (inactive) in each case.
With `CCn1c(=O)c(-c2cc[nH]n2)cc2c(C)nc(N)nc21` [VOXTALISIB], the Kd in assay [1], in assay [2], in assay [3] and in assay [4] was > 30 µM (inactive) each time.
Regarding `CCCS(=O)(=O)Nc1ccc(F)c(C(=O)c2c[nH]c3ncc(-c4ccc(Cl)cc4)cc23)c1F` [VEMURAFENIB], the Kd in assay [3], in assay [4] and in assay [5] was > 30 µM (inactive) throughout.
Turning to `O=C(Nc1ccc(-c2ccnc(Nc3ccc(N4CCOCC4)cc3)n2)cc1)C1CCCN1` (stereo not drawn) [XL-019], the Kd (in assay [1]; in assay [2]; on Ephrin type-A receptor 7) was > 30 µM (inactive) throughout.
For `Cn1ncc(Cl)c1-c1cc(C(=O)N[C@H](CN)Cc2cccc(F)c2)sc1Cl` [AFURESERTIB], the Kd (in assay [1]; in assay [2]; on Ephrin type-A receptor 7; in assay [3]) was > 30 µM (inactive) in each case.
In the case of `CCn1c(-c2nonc2N)nc2c(C#CC(C)(C)O)ncc(OC[C@H]3CCCNC3)c21` [GSK-690693], the Kd in assay [3] is > 30 µM (inactive).
Consider `CNC(=O)c1ccc(-c2cnc3ncc(Cc4ccc5ncccc5c4)n3n2)cc1F` [CAPMATINIB], for which the Kd (in assay [1]; at Ephrin type-A receptor 7; at Misshapen-like kinase 1; in assay [4]) was > 30 µM (inactive) each time.
Take `O=C(O)[C@]1(Cc2cccc(Nc3nccs3)n2)CC[C@@H](Oc2cccc(Cl)c2F)CC1` [MK-5108]: the Kd (in assay [1]; in assay [2]; on Ephrin type-A receptor 7; at Misshapen-like kinase 1; in assay [3]; in assay [4]) was > 30 µM (inactive) in each case.
`C[C@@H](Nc1cc(F)cc(F)c1)c1cc(C(=O)N(C)C)cc2c(=O)cc(N3CCOCC3)oc12` [AZD-8186]: the Kd (in assay [1]; at Ephrin type-A receptor 7; in assay [4]) was > 30 µM (inactive) in each case.
Turning to `COc1cc(CCc2cc(NC(=O)c3ccc(N4C[C@@H](C)N[C@@H](C)C4)cc3)n[nH]2)cc(OC)c1` [AZD-4547], the Kd (in assay [1]; in assay [2]; at Ephrin type-A receptor 7; in assay [3]; in assay [4]) was > 30 µM (inactive) each time.
Consider `C=CC(=O)N1CCC(Oc2cc3c(Nc4ccc(Cl)c(Cl)c4F)ncnc3cc2OC)CC1` [POZIOTINIB], for which the Kd (in assay [2]; at Ephrin type-A receptor 7; at Misshapen-like kinase 1; in assay [5]) was > 30 µM (inactive) throughout.
On to `Nc1nc(N)c2nc(-c3cccc(O)c3)c(-c3cccc(O)c3)nc2n1` [TG100-115], for which the Kd is > 30 µM (inactive) in assay [1], > 30 µM (inactive) in assay [2] and 7.02 µM in assay [4].
As to `CN1CCN(c2ccc3nc(-c4c(N)c5c(F)cccc5[nH]c4=O)[nH]c3c2)CC1` [DOVITINIB], the Kd in assay [3] and in assay [4] was > 30 µM (inactive) throughout.
`O=C(Nc1cccc(Cl)c1)Nc1ncc(CCNc2ncnc3ccsc23)s1` [SNS-314]: the Kd (in assay [2]; on Ephrin type-A receptor 7; in assay [3]; in assay [4]) was > 30 µM (inactive) in each case.
For the compound `C1=C/COCc2cc(ccc2OCCN2CCCC2)Nc2nccc(n2)-c2cccc(c2)COC/1` [PACRITINIB], the Kd (in assay [1]; in assay [2]; on Ephrin type-A receptor 7) was > 30 µM (inactive) in each case.
Consider `COc1cc2nccc(Oc3ccc(NC(=O)NC4CC4)c(Cl)c3)c2cc1C(N)=O` [LENVATINIB], for which the Kd (in assay [2]; at Misshapen-like kinase 1; in assay [3]; in assay [4]; in assay [5]) was > 30 µM (inactive) throughout.
`CNC(=O)c1ccc(C)c(-n2c(C)cc(OCc3ccc(F)cc3F)c(Br)c2=O)c1` [PH-797804]: the Kd (in assay [1]; in assay [2]; at Misshapen-like kinase 1; in assay [3]) was > 30 µM (inactive) in each case.
With `COc1cc2nccc(Oc3ccc(NC(=O)Nc4cc(C)on4)c(Cl)c3)c2cc1OC` [TIVOZANIB], the Kd (in assay [2]; on Misshapen-like kinase 1; in assay [3]; in assay [4]; in assay [5]) was > 30 µM (inactive) each time.
As for `C[C@@H](c1ccc2nccn2c1)n1nnc2ncc(-c3cnn(C)c3)nc21` [SAVOLITINIB], the Kd (in assay [1]; in assay [2]; on Misshapen-like kinase 1; in assay [3]; in assay [4]; in assay [5]) was > 30 µM (inactive) each time.
`N[C@@H]1CCCN(c2c(/C=C3\SC(=O)NC3=O)cccc2-c2ccccc2)C1`: the Kd (in assay [1]; in assay [2]; on Ephrin type-A receptor 7; in assay [3]; in assay [4]) was > 30 µM (inactive) in each case.
For `CC(C)Nc1cc(-c2c[nH]c(C(=O)N[C@H](CO)c3cccc(Cl)c3)c2)c(Cl)cn1` [ULIXERTINIB], the Kd in assay [1], in assay [3] and in assay [4] was > 30 µM (inactive) throughout.
`COCCNCc1ccc(-c2cc3nccc(Oc4ccc(NC(=S)NC(=O)Cc5ccc(F)cc5)cc4F)c3s2)nc1` [GLESATINIB]: the Kd in assay [1], in assay [2], in assay [3] and in assay [4] was > 30 µM (inactive) each time.
Consider `Cn1cc(-c2ccc3nnc(C(F)(F)c4ccc5ncccc5c4)n3n2)cn1` [JNJ-38877605], for which the Kd (in assay [1]; in assay [2]; at Ephrin type-A receptor 7; in assay [3]; in assay [4]) was > 30 µM (inactive) throughout.
In the case of `Cc1cn(-c2cc(NC(=O)c3ccc(C)c(Nc4nccc(-c5cccnc5)n4)c3)cc(C(F)(F)F)c2)cn1` [NILOTINIB], the Kd in assay [2], in assay [3] and in assay [4] was > 30 µM (inactive) throughout.
Consider `CN1N=C(N)c2cn([C@@H]3O[C@H](COP(=O)(O)O)[C@@H](O)[C@H]3O)c3ncnc1c23` [TRICIRIBINE PHOSPHATE], for which the Kd in assay [1], in assay [2], in assay [3] and in assay [4] was > 30 µM (inactive) each time.

The Kd is the constant that tells how readily two partners part at equilibrium.
